Results reported in US11413255B2, “Multifunctional cytoprotectant for treatment of pathogenic processes mediated by oxidative stress and toxic electrophiles” (Montefiore Medical Center, priority 2015, dated 2022).
“Also recorded” adds a separate entry of the source. Read-outs that look alike come from different tables or passages of the source.

Tests used:
[1] = test system: raloxifene-exposed hepatocytes
APAP-intoxicated mice = conditions: for hepatoprotection in APAP-intoxicated mice, i. p. administration: i. p. 20 mins prior to APAP, THA 0.20-0.80, PG 0.40-2.40, 4-NAHA 0.04-0.08 mmol/kg; for hepatoprotection in APAP-intoxicated mice, oral administration: THA and PG 0.80-2.40, 4-NAHA 0.04-0.12, NAC 1.60-2.40 mmol/kg
Text: Survival curves, THA and PG i. p. administration.
Survival curves, THA and PG oral administration.
Survival curves, 4-NAHA i. p. and oral administration.

mice [2] = test system: mice
[3] = test system: APAP-exposed isolated mouse liver cells (hepatocytes); assay: Viability of APAP-exposed isolated mouse hepatocytes, graded protectant concentrations; assay type: cell-based; conditions: read-out: EC50 (cytoprotection)
[4] = test system: raloxifene-exposed hepatocytes; assay: Raloxifene-induced hepatocyte toxicity; conditions: for protection against raloxifene: at 150 μM
[5] = Computational data on THA analogues: pKa and % anion; assay type: physicochemical
Text: Computational Data on THA Analogues:

APAP-exposed hepatocytes = assay: Hepatocyte rescue: protectant added 2 hrs after APAP; assay type: cell-based, mouse
[6] = test system: isolated hepatocytes exposed to graded APAP; assay: Isolated hepatocytes, fixed protectant and graded APAP concentrations; assay type: cell-based, mouse
Text: FIG. 8A-8B. […] Data are expressed as mean percent of control±SEM and *indicates p<0.05.

[7] = pKa and % anion at physiological pH; conditions: for % in the carbanion / ionized nucleophilic state: physiological / cellular pH
[8] = test system: cell culture models of oxidative stress and electrophile (acrolein) toxicity; conditions: cited from earlier work
[9] = In chemico prevention of thiol (GSH) depletion by acrolein; assay type: biochemical; conditions: FIG. 2B
[10] = test system: carbon tetrachloride-induced hepatotoxicity in mice; conditions: 0.032 mmol/kg p. o.; carbon tetrachloride 0.5 ml/kg i. p.; cited from earlier work
[11] = In chemico prevention of thiol (GSH) depletion by NAPQI; assay type: biochemical; conditions: FIG. 2A
mice [12] = conditions: cited from earlier work
[13] = 0.25 mM protectant, APAP 1.0 mM
[14] = 0.25 mM protectant, APAP 0.25-5.0 mM×4 hrs
[15] = 0.25 mM protectant, highest APAP concentration 5.0 mM
[16] = 1.0 mM protectant, APAP 0.25-5.0 mM×4 hrs

Row | Compound | hepatoprotection in APAP-intoxicated mice, oral administration (APAP-intoxicated mice) | protection against raloxifene [4] | effect on viability, protectant added 2 hrs post-APAP (APAP-exposed hepatocytes; [13]) | effect on viability, protectant added 2 hrs post-APAP (APAP-exposed hepatocytes; 1.0 mM protectant) | cytoprotection (viability) [6, 14] | cytoprotection (viability) [6, 16] | EC50 ([3]; Mus musculus, Hepatocyte, 4 h) | % Anion (pH 7.4) [7] | toxicity measures (ALT appearance, mitochondrial membrane potential) ([6]; 1.0 mM protectant) | further results
1 | CC(=O)c1cc(O)c(C(C)=O)c(O)c1 [4-NAHA, 4-acetyl-2,6-dihydroxy acetophenone] | effective over a broader dose-range | fully protective | – | – | – | – | – | – | – | relative ability to prevent raloxifene-induced hepatocyte toxicity [1]: superior protection; hepatoprotection (APAP-intoxicated mice; i. p. 0.04 mmol/kg): ineffective; hepatoprotection (APAP-intoxicated mice; i. p. 0.08 mmol/kg): significant hepatoprotection; hepatoprotection in APAP-intoxicated mice, i. p. administration (APAP-intoxicated mice): dose-dependent protection; hepatoprotection (APAP-intoxicated mice; oral 0.04 mmol/kg): ineffective; hepatoprotection (APAP-intoxicated mice; oral 0.12 mmol/kg, lethality significantly delayed): partially protective; delayed toxicity (mice [2]; all doses tested, 7 days): did not cause delayed toxicity; acute toxicity (mice [2]; doses 0.04-0.12 mmol/kg): not acutely toxic; EC50 ([3]; APAP 1.0 mM, 4 hrs, protectant 0.010-5.0 mM): 6 µM
2 | O=C(CCc1ccc(O)cc1)c1c(O)cc(O)cc1O [drawing 21] | – | – | – | – | – | – | – | – | – | % Anion (pH = 7.4) [5]: 56%
3 | Oc1cc(O)cc(O)c1 [PG, 1,3,5-trihydroxybenzene] | – | – | arrested the progression of APAP-induced toxicity | complete restoration of viability | fully protective up to the 1.0 mM APAP concentration | full hepatocyte protection irrespective of APAP concentration | ~90 µM | 7.40% | – | cytoprotection (viability) [6, 15]: only partial cytoprotection; pKa (physchem): 8.45; % in the carbanion / ionized nucleophilic state [7]: 7%
4 | O=C(c1ccc(OCCN2CCCCC2)cc1)c1c(-c2ccc(O)cc2)sc2cc(O)ccc12 [raloxifene, reference compound] | – | – | – | – | – | – | – | – | – | concentration producing hepatocyte toxicity ([4]; raloxifene exposure): 75 µM
5 | O=C(CCc1ccc(O)cc1)c1c(O)cc(O)cc1O [Phloretin, phloretin] | – | – | – | – | – | – | – | 55.0% | – | effect of higher concentrations ([8]; above the protective range): cytotoxic; concentrations giving significant cytoprotection ([8]; several cell culture models): 100 to 250 µM; hepatoprotection (APAP-intoxicated mice; i. p. 0.200 mmol/kg, APAP 500 mg/kg p. o.): marginal hepatoprotection; lethality when administered alone (mice [2]; 0.40-2.40 mmol/kg, administered alone): associated with lethality
6 | CC(=O)C1CCCC1=O (stereo not drawn) [2-ACP, 2-acetylcyclopentanone] | – | partial protection | ineffective | truncated the rapid decline in viability | neither 2-ACP nor NAC provided cytoprotection beyond the lowest APAP concentration | partial cytoprotection | ~1000 µM | 28.0% | return toward normalization of the toxicity indices | effect on viability, protectant added 2 hrs post-APAP (APAP-exposed hepatocytes; 5 mM protectant, APAP 1.0 mM): promoted recovery of APAP-exposed hepatocytes; prevention of acrolein-induced thiol (GSH) depletion [9]: better GSH protection from acrolein than THA or PG
7 | CC(=O)c1c(O)cc(O)cc1O [THA, 2′,4′,6′-trihydroxyacetophenone] | dose-dependent hepatoprotection; also recorded: dose-dependent protection | fully protective | partial recovery of viability | complete restoration of viability | fully protective up to the 1.0 mM APAP concentration | full hepatocyte protection irrespective of APAP concentration | ~90 µM | 33.0% | normal | prevention of carbon tetrachloride-induced hepatotoxicity [10]: completely prevent; prevention of NAPQI-induced thiol (GSH) depletion [11]: better thiol protection than PG; also recorded: better protection against NAPQI-induced GSH loss; hepatoprotection in APAP-intoxicated mice, i. p. administration (APAP-intoxicated mice): dose-dependent (0.20-0.80 mmol/kg) hepatoprotection; lethality associated with the i. p. doses (mice [2]; i. p. doses of FIG. 3): No lethality; cytoprotection (viability) [6, 15]: preserved cell viability; pKa (physchem): 7.75; prevention of acrolein-induced thiol (GSH) depletion [9]: better thiol protection than PG; relative ability to prevent raloxifene-induced hepatocyte toxicity ([4]; FIG. 10 legend): superior protection; oral LD50 mice (mice [12]): 3.20 gm/kg; pKa [7]: 7.7; % in the carbanion / ionized nucleophilic state [7]: approximately 33%
8 | Oc1cc(O)cc(O)c1 [drawing 24] | – | – | – | – | – | – | – | – | – | % Anion (pH = 7.4) [5]: 07%; pKa ([5]; values without * (not estimates)): 8.5
9 | CC(=O)N[C@@H](CS)C(=O)O [NAC, N-acetyl cysteine] | effective APAP antidote only when administered orally | partial protection | ineffective | truncated the rapid decline in viability | neither 2-ACP nor NAC provided cytoprotection beyond the lowest APAP concentration | partial cytoprotection | ~1000 µM | 0.80% | return toward normalization of the toxicity indices | effect on viability, protectant added 2 hrs post-APAP (APAP-exposed hepatocytes; 5 mM protectant, APAP 1.0 mM): promoted recovery of APAP-exposed hepatocytes
